SMILES | melting point [°C]
O=C(CO)Nc1ccc(Oc2ccccc2)cc1 | 149 to 151
O=Cc1c(Cl)cccc1N1CCCC1 | 69 to 71
Cn1cccc1C(=O)NN | 113 to 115
Cc1cc(S(N)(=O)=O)ccc1[N+](=O)[O-] | 131 to 133
COc1cc(OCC(=O)O)ccc1[N+](=O)[O-] | 195 to 197
NC(=O)c1cc(S(=O)(=O)N2CCCC2)ccc1O | 254 to 260
O=C(O)C1(c2ccc3c(c2)OCCO3)CCCC1 | 165 to 167
COC(=O)c1cc2c(C=O)ccc(OC)c2o1 | 171 to 173
CC(O)c1ccc(S(=O)(=O)Nc2ccc(C(=O)O)cc2)cc1 (stereo unspecified) | 199 to 201
Cc1ccc(NC(N)=O)cc1F | 190 to 192
O=Cc1cnn2ccccc12 | 82 to 84
NNC(=O)COc1ccccc1F | 109 to 112
NNC(=O)N1CCSCC1 | 129 to 131
Cc1cccc(OCCC(=O)O)c1 | 99 to 101
CSCCC(NS(=O)(=O)c1ccc2c(c1)OCCO2)C(=O)O (stereo unspecified) | 93 to 96
CS(=O)(=O)Nc1cccc(CC(=O)O)c1 | 156 to 158
O=C(O)c1cc(S(=O)(=O)Cl)c(F)cc1Cl | 144 to 146
N#CCCC(=O)c1cccnc1 | 71 to 73
NC(=NO)C1CCCCC1 | 89 to 91
O=S(=O)(c1ccc(S)nc1)N1CCN(Cc2ccccc2)CC1 | 169 to 171
Cc1cc(C(=O)NCC(=O)O)ccc1[N+](=O)[O-] | 216 to 218

SMILES | melting point [°C]
O=C(c1ccsc1)N1CCCNCC1 | 98 to 100
CC(C)(C)OC(=O)N1CCCCC1(C)C(=O)O (stereo unspecified) | 92 to 94
Cc1csc(C(O)C(F)(F)F)n1 (stereo unspecified) | 122 to 124
COc1ccc(CCC(=O)Nc2ccccc2C(=O)O)cc1 | 159 to 161
C#CCOc1cccc(C#N)c1 | 61 to 63
Cc1cccc(NC(=O)CSCC(=O)O)c1 | 200 to 206
O=C(NCCc1cccs1)C1Cc2ccccc2CN1 (stereo unspecified) | 86 to 88
Cc1cccc2c1CN(C(=O)OC(C)(C)C)CCN2 | 95 to 97
CCOC(=O)c1cc(Br)cc(Cl)c1N | 49 to 51
CC(C)(C(=O)O)c1ccc2c(c1)OCCO2 | 125 to 127
Cc1ccc(C2(C)NC(=O)NC2=O)c(C)c1 (stereo unspecified) | 144 to 146
NCc1ccc(N2CCC(CO)CC2)cc1 | 138 to 140
COc1ccc(S(=O)(=O)Cl)cc1C | 51 to 53
O=C(O)c1n[nH]c2ccc(I)cc12 | 285 to 287
Cc1cc(C)c(NC(=O)CCl)c(C)c1 | 153 to 157
CCn1cc(Br)cc1C(=O)O | 148 to 150
CC(C)(C)OC(=O)c1cccc(C=O)c1 | 31 to 33
N#Cc1ccc(CNc2ccc3[nH]c(=O)[nH]c3c2)cc1 | 276 to 278
Cc1ccc(C(=O)O)cc1S(=O)(=O)NC1CCCC1 | 185 to 187
O=C1Nc2c(cc(F)cc2[N+](=O)[O-])C1=O | 176 to 178
COc1ccsc1C(N)=O | 147 to 149

SMILES | melting point [°C]
COc1cc(CNC(=O)CCl)cc(OC)c1OC | 106 to 108
CCOC(=O)c1cnc(C(=O)O)c(Cl)c1 | 114 to 116
O=C(O)C1(O)CCN(Cc2ccccc2)C1 (stereo unspecified) | 173 to 175
O=C(CO)N1CCc2ccccc21 | 147 to 149
CC1=NS(=O)(=O)NC(C)=C1CCC(=O)O | 162 to 164
Cn1c(CCl)nc2c1c(=O)[nH]c(=O)n2C | 269 to 271
COc1ccccc1-n1cc(S(=O)(=O)Cl)cn1 | 68 to 70
CC(C)Oc1cnc(C(=O)O)cn1 | 109 to 111
NS(=O)(=O)c1ccc2c(c1)NCC2 | 164 to 166
Cc1cccc(C(N)C(=O)O)c1 (stereo unspecified) | 229 to 231
Cn1c(=O)n(C)c2cc(C(=O)O)c(Br)cc21 | 289 to 291
CN1CCN(S(=O)(=O)c2ccc(NN)nc2)CC1 | 168 to 170
COc1cccc(Cn2c(N)cc(=O)[nH]c2=O)c1 | 292 to 294
NS(=O)(=O)c1ccc2c(c1)OCO2 | 155 to 157
O=C(O)CCc1ccc(O)c(Cl)c1 | 84 to 86
O=C(O)C(Sc1ccc(F)cc1)c1ccccc1 (stereo unspecified) | 84 to 86
O=C(CCCl)Nc1ccc(S(=O)(=O)N2CCCC2)cc1 | 174 to 176
CC(C)(C)OC(=O)N1CCCC(C(=O)NC2CCCNC2)C1 (stereo unspecified) | 116 to 118
CON(C)S(=O)(=O)c1ccc(Cl)c(C(=O)O)c1 | 184 to 186
COC(=O)c1c(NC(=O)CCl)sc2c1CCC2 | 98 to 100

Results, then the compound that gave them:

melting point [°C] | SMILES
164 to 166 | Oc1cccc2[nH]ncc12
241 to 243 | Cc1cc(C)n(-c2ccc(C(=O)O)cn2)n1
152 to 154 | NC(=S)c1cccc(O)c1
244 to 246 | COc1ccc(C)cc1-n1cc(C(=O)O)ccc1=O
134 to 136 | COC(=O)C(=O)CN1C(=O)c2ccccc2C1=O
144 to 147 | O=C(O)c1cccc(S)c1
98 to 100 | CC(Cl)C(=O)Nc1cccc(Cl)c1 (stereo unspecified)
172 to 174 | Cc1ccc(Nc2nnc(S)s2)c(C)c1
72 to 74 | OCc1cnn(Cc2ccc(Br)cc2)c1
263 to 265 | O=c1cc(-c2ccccc2)c2ccccc2[nH]1
220 to 222 | O=C(O)Cc1csc2nc(-c3ccccc3)cn12
71 to 75 | Clc1ccc(SCc2nc(Cl)c3c4c(sc3n2)CCC4)cc1
132 to 134 | Cn1cc(-c2cccc(N)n2)cn1
303 to 305 | Nc1c(C(=O)O)cnc2ccccc12
199 to 201 | O=c1[nH]c2ccccc2cc1CCl
214 to 216 | O=C(O)c1ccc(-c2ncon2)cc1
293 to 295 | Oc1ccc2cccc(O)c2n1
190 to 192 | Cc1nc(-c2ccccc2)ccc1C(=O)O
127 to 129 | Nc1cccc(S(=O)(=O)Nc2ccc(Cl)cc2)c1
156 to 158 | Cc1nnnn1-c1ccc(F)c(N)c1

melting point [°C] | SMILES
126 to 128 | O=C(O)C1Cc2cccc(F)c2O1 (stereo unspecified)
94 to 96 | Brc1ncnc2ccccc12
166 to 168 | O=C(O)Cn1ccc2ccc(Cl)cc21
239 to 241 | O=C(Nc1ccc(C(=O)O)c(O)c1)c1cccc(Br)c1
103 to 105 | OCc1noc(-c2cccc(Cl)c2)n1
143 to 145 | O=C(O)c1cccc(OCc2ccc(F)cc2)c1
222 to 224 | Cc1ccc(-c2nnc(N)[nH]2)s1
74 to 76 | ClCc1nnc(-c2cccc(Br)c2)o1
255 to 257 | Cc1cccc2c(=O)[nH]cnc12
157 to 159 | Nc1nc(CC(=O)c2ccccc2)cs1
109 to 111 | Cc1cc(-c2nnn[nH]2)ccc1F
186 to 188 | Nc1cc(-c2ccc(I)cc2)[nH]n1
188 to 190 | NC(=O)c1ccc(Cl)cc1O
59 to 61 | Clc1ccc(-c2noc(Cl)n2)cc1
109 to 111 | Oc1cccc(Oc2cccnc2)c1
165 to 167 | O=C(O)C1CCN(c2ccc(Cl)c(Cl)c2)C1=O (stereo unspecified)
167 to 169 | Nc1ccc(N2CCNC(=O)C2)cc1
109 to 111 | CN(C)S(=O)(=O)c1c(Cl)nc2ccccn12
215 to 217 | N#CC(C(=O)CCl)c1nc(-c2ccccc2)cs1 (stereo unspecified)

Reference: a melting point compilation (Tetko et al.)
